Test results published in patent publication US20200179488A1, “Secretin Receptor Agonists to Treat Diseases or Disorders of Energy Homeostasis” (Technische Universität München, priority 2016, published 2020).

Key:
[1] = test system: UCP1 expression; experiment: UCP1 mRNA expression (qRT-PCR) in primary adipocytes from inguinal white adipose tissue; assay type: cell-based, Mus musculus; settings: 0.1 μM secretin or 0.5 μM isoproterenol, 6 hours, normalized to TFIIB (FIG. 4A)
Description: For culturing primary adipocytes male 129S1/SvImJ mice ([…] or UCP1-KO mice and wildtype littermates) at the age of 5-6 weeks were used for the dissection of inguinal and epidydimal white adipose tissue and interscapular brown adipose tissue depots. The tissue was carefully minced and treated with collagenase for 45 min at 37° C. The homogenate was filtered through a 250 μm nylon mesh and centrifuged at 500 g to collect the stromal vascular fraction (SVF). The SVF cell pellet was rinsed and seeded into XF96 V3-PS cell culture microplate (Seahorse Bioscience). After reaching confluency, induction medium containing 10% fetal bovine serum (FBS), 0.5 mM isobutylmethylxanthine, 125 nM indomethacin, 1 mM dexamethasone, 850 nM insulin and 1 nM T3 was added. […] Respiration was measured on day 7 of differentiation. […] RNA was eluted in 50 μl nuclease-free water and RNA concentration was determined spectrophotometrically (Infinite 200 PRO NanoQuant, Tecan, Männedorf/Switzerland). Reverse transcription into cDNA was performed with 500 ng RNA in a final volume of 10 μl (Quantitect Reverse Transcription Kit, Quiagen, Hilden/Germany). qRT-PCR was conducted on 384 well plates in a total volume of 12.5 μl comprising 6.25 μl SensiMix SYBR No-ROX (Bioline, London/UK), 250 nM forward and reverse primers, and 1 μl template cDNA (LightCycler 480 System, Roche Diagnostics, Rotkreuz/Switzerland). […]

[2] = test system: UCP1 knockout mice; experiment: Food intake on refeeding of fasted Ucp1 knockout mice; assay type: in vivo, Mus musculus; settings: fasted 18 h, 5 nmol i.p., 4 hours of refeeding, compared to wildtype (FIG. 8)
Description: For the measurement of food intake, a feeding-drinking-activity (FDA) device was used (TSE Systems, Bad Homburg/Germany). During the measurement mice were single-housed in type-III cages. Mice were habituated to the new cage environment and received every morning at 10 a.m. a single daily intraperitoneal (i.p.) PBS-injection for four days ahead of the experiment start. The body weight of the mice was measured every day. On day four day of habituation the food was removed from the cages at 5 p.m., and the mice were food deprived over night with ad libitum access to water. On the next morning, mice were i.p. injected with either PBS as control or secretin (rat, Tocris, Art Nr 1919). The latter was given in different doses. Subsequently the mice were refed ad libitum while monitoring food intake during the following 72 hours. […] Food intake was calculated from the decrease in feeder weight. The results were exported into a spreadsheet calculation table (Excel, Microsoft) and analyzed with a software package for statistics and graphics (GraphPad Prism 4.0, GraphPad Software, San Diego, USA).
Next to thermogenesis, brown fat has been proposed to function in the thermoregulatory control of feeding. […] Just before refeeding, mice were intra-peritoneally injected with 5 nmol secretin solved in PBS, or PBS as the vehicle control, and food intake was monitored for the following three days.

Substance: secretin
- UCP1 mRNA expression in white adipocytes versus PBS [1]: increased the expression of UCP1
- refeeding food intake in Ucp1 knockout mice [2]: did not inhibit refeeding
